Where “and” joins values, the source holds several entries; their conditions need not be identical. Equal values may be shown once.
Tested on: 883617-216-R-J1-PDC complex spheroids, growth, % test/control
Experiment: Anticancer human tumor 883617-216-R-J1-PDC patient-derived bladder carcinoma cell line growth inhibition [AhR]
Details: for viability, T/C: stronger effect = lower value
Method in brief: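 Spheroids combined tumor cells with HUVEC endothelial cells and human MSCs as stroma. AhR antagonists were paired with standard or investigational drugs, each dosed in half-log steps down from near clinical Cmax, or from 10 microM where Cmax was unknown.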

[1] = curve of first compound, second compound 0.1 µM
[2] = curve of first compound, second compound 0.316 µM
[3] = curve of first compound, second compound 1 µM
[4] = curve of first compound, second compound 3.16 µM
[5] = curve of first compound, second compound 10 µM
[6] = second compound 0.1 µM, first compound 0.0316 µM
[7] = second compound 0.1 µM, first compound 0.1 µM
[8] = second compound 0.1 µM, first compound 0.316 µM
[9] = second compound 0.1 µM, first compound 1 µM
[10] = second compound 0.1 µM, first compound 3.16 µM
[11] = second compound 0.1 µM, first compound 10 µM
[12] = second compound 0.316 µM, first compound 0.0316 µM
[13] = second compound 0.316 µM, first compound 0.1 µM
[14] = second compound 0.316 µM, first compound 0.316 µM
[15] = second compound 0.316 µM, first compound 1 µM
[16] = second compound 0.316 µM, first compound 3.16 µM
[17] = second compound 0.316 µM, first compound 10 µM
[18] = second compound 1 µM, first compound 0.0316 µM
[19] = second compound 1 µM, first compound 0.1 µM
[20] = second compound 1 µM, first compound 0.316 µM
[21] = second compound 1 µM, first compound 1 µM
[22] = second compound 1 µM, first compound 3.16 µM
[23] = second compound 1 µM, first compound 10 µM
[24] = second compound 3.16 µM, first compound 0.0316 µM
[25] = second compound 3.16 µM, first compound 0.1 µM
[26] = second compound 3.16 µM, first compound 0.316 µM
[27] = second compound 3.16 µM, first compound 1 µM
[28] = second compound 3.16 µM, first compound 3.16 µM
[29] = second compound 3.16 µM, first compound 10 µM
[30] = second compound 10 µM, first compound 0.0316 µM
[31] = second compound 10 µM, first compound 0.1 µM
[32] = second compound 10 µM, first compound 0.316 µM
[33] = second compound 10 µM, first compound 1 µM
[34] = second compound 10 µM, first compound 3.16 µM
[35] = second compound 10 µM, first compound 10 µM
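Further: exposure lasted 7 days after dosing on day 3 of spheroid growth.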

Structure (SMILES) | IC50 [1] | IC50 [2] | IC50 [3] | IC50 [4] | IC50 [5] | viability, T/C [6] | viability, T/C [7] | viability, T/C [8] | viability, T/C [9] | viability, T/C [10] | viability, T/C [11] | viability, T/C [12] | viability, T/C [13] | viability, T/C [14] | viability, T/C [15] | viability, T/C [16] | viability, T/C [17] | viability, T/C [18] | viability, T/C [19] | viability, T/C [20] | further results
O=C(C=Cc1cccc(S(=O)(=O)Nc2ccccc2)c1)NO + Cc1cncc(-c2nc(NCCc3c[nH]c4ccccc34)c3ncn(C(C)C)c3n2)c1 | 1.74 µM | 1.66 µM | 1.96 µM | 1.9 µM | < 0.0316 µM | 92.5% | 93.9% | 83% | 60.6% | 37% | 3.56% | 88.5% | 86.4% | 84.4% | 60.3% | 34.5% | 4.17% | 97.1% | 101% | 96.4% | viability, T/C [21]: 63.5%; viability, T/C [22]: 39.1%; viability, T/C [23]: 2.44%; viability, T/C [24]: 123%; viability, T/C [25]: 114%; viability, T/C [26]: 94.8%; viability, T/C [27]: 69.8%; viability, T/C [28]: 34.6%; viability, T/C [29]: 2.66%; viability, T/C [30]: 52.4%; viability, T/C [31]: 43.2%; viability, T/C [32]: 34.7%; viability, T/C [33]: 42.7%; viability, T/C [34]: 22%; viability, T/C [35]: 1.42%
Nc1ccccc1NC(=O)c1ccc(CNC(=O)OCc2cccnc2)cc1 | – | – | – | – | – | – | – | – | – | – | – | – | – | – | – | – | – | – | – | – | viability, T/C (compound 0.0316 µM): 96.9% and 100% and 89.9%; viability, T/C (compound 0.1 µM): 102% and 111% and 88.5%; viability, T/C (compound 0.316 µM): 86.1% and 82.7% and 81.7%; viability, T/C (compound 1 µM): 52.8% and 62.3% and 78.8%; viability, T/C (compound 3.16 µM): 20% and 24.2% and 63.7%; viability, T/C (compound 10 µM): 0.83% and 1.59% and 18.8%; IC50 (curve of compound): 1.15 µM and 1.39 µM and 4.4 µM
O=C(c1cc(Cc2n[nH]c(=O)c3ccccc23)ccc1F)N1CCN(C(=O)C2CC2)CC1 + CC(CO)NC(=O)c1cc(-c2ccc(Cl)cc2)nn(-c2cnn(C)c2)c1=O | > 10 µM | > 10 µM | > 10 µM | > 10 µM | > 10 µM | 107% | 109% | 78.8% | 124% | 118% | 80.2% | 80% | 114% | 115% | 92.3% | 72.4% | 87.1% | 122% | 124% | 111% | viability, T/C [21]: 104%; viability, T/C [22]: 137%; viability, T/C [23]: 97%; viability, T/C [24]: 120%; viability, T/C [25]: 88.5%; viability, T/C [26]: 85.5%; viability, T/C [27]: 105%; viability, T/C [28]: 119%; viability, T/C [29]: 82.3%; viability, T/C [30]: 126%; viability, T/C [31]: 84.7%; viability, T/C [32]: 128%; viability, T/C [33]: 98.9%; viability, T/C [34]: 64.2%; viability, T/C [35]: 104%
